From paper PMC5766608, “Target engagement imaging of PARP inhibitors in small-cell lung cancer” (Nature Communications, 2018) come the findings set out here.

The target in assay [1] is T1, TNKS1 (Homo sapiens, UniProt O95271).
T1 construct: purchased BPS Bioscience, San Diego, CA
T1 sequence (O95271 1-1327): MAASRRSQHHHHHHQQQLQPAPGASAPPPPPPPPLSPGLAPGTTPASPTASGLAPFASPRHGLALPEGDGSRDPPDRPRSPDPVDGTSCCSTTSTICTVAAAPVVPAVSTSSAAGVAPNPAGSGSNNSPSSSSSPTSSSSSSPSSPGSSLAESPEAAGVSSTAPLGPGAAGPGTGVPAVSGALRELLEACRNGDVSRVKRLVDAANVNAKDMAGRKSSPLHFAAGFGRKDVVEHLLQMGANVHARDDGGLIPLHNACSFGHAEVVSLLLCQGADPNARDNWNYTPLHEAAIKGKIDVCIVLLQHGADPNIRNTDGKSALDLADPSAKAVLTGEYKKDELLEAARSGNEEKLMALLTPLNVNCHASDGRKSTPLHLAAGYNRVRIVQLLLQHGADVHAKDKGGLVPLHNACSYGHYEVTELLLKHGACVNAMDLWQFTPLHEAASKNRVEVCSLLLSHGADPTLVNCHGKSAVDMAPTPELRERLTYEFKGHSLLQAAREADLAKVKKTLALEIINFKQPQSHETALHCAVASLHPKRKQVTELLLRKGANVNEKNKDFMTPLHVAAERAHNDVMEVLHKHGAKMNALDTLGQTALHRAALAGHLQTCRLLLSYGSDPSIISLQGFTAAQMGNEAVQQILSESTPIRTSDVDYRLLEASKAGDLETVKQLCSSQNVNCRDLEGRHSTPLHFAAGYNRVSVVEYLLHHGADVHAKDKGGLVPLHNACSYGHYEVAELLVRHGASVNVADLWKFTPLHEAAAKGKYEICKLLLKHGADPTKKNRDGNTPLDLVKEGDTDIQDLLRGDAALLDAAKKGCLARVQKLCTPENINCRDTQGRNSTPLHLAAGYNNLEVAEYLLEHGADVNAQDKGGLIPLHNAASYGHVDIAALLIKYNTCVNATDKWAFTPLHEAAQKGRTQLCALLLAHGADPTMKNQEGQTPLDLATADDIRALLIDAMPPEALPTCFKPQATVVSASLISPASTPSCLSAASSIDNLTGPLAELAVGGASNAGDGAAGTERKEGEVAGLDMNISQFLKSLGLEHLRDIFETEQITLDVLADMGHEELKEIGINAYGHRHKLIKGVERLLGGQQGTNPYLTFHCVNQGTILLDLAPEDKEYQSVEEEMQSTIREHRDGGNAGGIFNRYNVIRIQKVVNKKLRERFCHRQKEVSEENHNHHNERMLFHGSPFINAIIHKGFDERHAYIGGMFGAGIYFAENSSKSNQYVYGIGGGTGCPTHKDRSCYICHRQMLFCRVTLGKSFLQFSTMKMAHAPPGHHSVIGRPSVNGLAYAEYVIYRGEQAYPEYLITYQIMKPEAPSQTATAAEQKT
Nature of the assay: PARP family enzyme activity inhibition screening (BPS Bioscience). It is filed as biochemical. The following applies: 100 nM inhibitor. As to the method: (§1) Fig. 1 Properties of PARP inhibitors. a Structures of 5 clinical therapeutic PARP inhibitors and the 2 PARP imaging agents. b Heatmap visualizing enzymatic activity screening of 10 small molecules against 12 PARP enzymes at 100 nM concentration (for additional concentrations, see Supplementary Fig. 1)
(§2) Assay was performed by BPS Bioscience, San Diego, CA. 100 µM DMSO solutions of each inhibitor were provided, and the assay was conducted after dilution to 100, 50, or 10 nM. […] Data was reported by BPS as % Enzyme Activity. Triplicates were combined to get a mean ± SD, and these were grouped and plotted onto a heatmap using Prism 7.
(§3) Supplementary Figure 1 | PARP enzyme family binding assays at additional concentrations.
(§4) histone substrate and biotin-labeled NAD+ at 100 nM (Fig. 1b), 50 nM (left) and 10 nM (right) for
(§5) each inhibitor and each enzyme.

Assay [2] deals with T2, TNKS2 (Homo sapiens, UniProt Q9H2K2).
T2 construct: purchased BPS Bioscience, San Diego, CA
T2 sequence (Q9H2K2 1-1166): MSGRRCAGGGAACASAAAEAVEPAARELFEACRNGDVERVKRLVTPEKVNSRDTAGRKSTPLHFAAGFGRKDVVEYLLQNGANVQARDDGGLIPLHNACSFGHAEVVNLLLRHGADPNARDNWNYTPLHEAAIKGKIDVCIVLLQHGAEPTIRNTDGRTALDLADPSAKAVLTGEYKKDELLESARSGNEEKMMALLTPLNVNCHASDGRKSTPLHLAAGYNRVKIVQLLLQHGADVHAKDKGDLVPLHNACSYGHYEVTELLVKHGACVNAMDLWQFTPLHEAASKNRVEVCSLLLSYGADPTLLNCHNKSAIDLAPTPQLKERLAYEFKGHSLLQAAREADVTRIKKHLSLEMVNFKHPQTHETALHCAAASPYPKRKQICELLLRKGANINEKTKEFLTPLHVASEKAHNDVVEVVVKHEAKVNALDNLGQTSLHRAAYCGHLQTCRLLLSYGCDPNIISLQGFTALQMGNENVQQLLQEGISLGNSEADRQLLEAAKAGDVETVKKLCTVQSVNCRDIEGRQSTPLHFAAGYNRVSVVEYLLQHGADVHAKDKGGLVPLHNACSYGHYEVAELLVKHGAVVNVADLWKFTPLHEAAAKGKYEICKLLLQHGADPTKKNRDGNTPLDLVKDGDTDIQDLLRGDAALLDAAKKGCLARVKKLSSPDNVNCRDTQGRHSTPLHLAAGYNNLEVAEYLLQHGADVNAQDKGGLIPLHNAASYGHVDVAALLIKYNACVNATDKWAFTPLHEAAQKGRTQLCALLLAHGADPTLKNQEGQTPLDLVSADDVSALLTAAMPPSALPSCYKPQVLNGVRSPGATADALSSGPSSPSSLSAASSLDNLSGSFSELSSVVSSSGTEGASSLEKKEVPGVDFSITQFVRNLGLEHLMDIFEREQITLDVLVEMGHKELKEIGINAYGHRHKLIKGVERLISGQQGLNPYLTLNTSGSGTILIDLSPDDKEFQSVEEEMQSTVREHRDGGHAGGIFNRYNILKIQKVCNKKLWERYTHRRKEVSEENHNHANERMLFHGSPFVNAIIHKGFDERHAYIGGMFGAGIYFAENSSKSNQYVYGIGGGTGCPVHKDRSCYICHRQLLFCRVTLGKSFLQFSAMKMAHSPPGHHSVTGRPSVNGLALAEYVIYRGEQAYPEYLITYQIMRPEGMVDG
Described as above. The class given is biochemical. The following applies: 100 nM inhibitor. As to the method:
as §1, §2, §3, §4, §5

One may read the inhibition as how much of the control response was suppressed.

Where only a bound is given, the exact number is not on record here.

Take `CC1=CC(C)=[N+]2C1=Cc1ccc(CCC(=O)N3CCN(C(=O)c4cc(Cc5n[nH]c(=O)c6ccccc56)ccc4F)CC3)n1[B-]2(F)F` [PARPi-FL]: the inhibition at 0.1 µM in assay [1] and in assay [2] was ≤ 5% in each case.
Take `Cn1ncnc1[C@H]1c2n[nH]c(=O)c3cc(F)cc(c23)N[C@@H]1c1ccc(F)cc1` [Talazoparib, (8S,9R)-5-Fluoro-8-(4-fluorophenyl)-9-(1-methyl-1H-1,2,4-triazol-5-yl)-2,7,8,9-tetrahydro-3H-pyrido[4,3,2-de]phthalazin-3-one]: the “Inhibition of TNKS1 enzyme activity” value in assay [1] is reported as “exhibited inhibition”. Moreover, in assay [2], the “Inhibition of TNKS2 enzyme activity” value is “exhibited inhibition”.
For the compound `O=C(c1ccc(F)cc1)N1CCN(C(=O)c2cc(Cc3n[nH]c(=O)c4ccccc34)ccc2F)CC1` [^19F-PARPi], the “Inhibition of TNKS1 enzyme activity” value in assay [1] is ≤ 5%. Further, the “Inhibition of TNKS2 enzyme activity” value in assay [2] was ≤ 5%.
